Measurements published in paper PMC6611044, “Pharmacokinetic analysis of new synthetic antimalarial N-251” (Tropical Medicine and Health, 2019).
In brackets after ≈: the same amount, converted by molar mass. Several values for one entry are separate records, joined by “and”; a condition that tells them apart may be missing. Equal entries are not always repeated. Entries after “also recorded” stand apart in the source; their conditions may differ. Where two headings read alike, the source gives them in different places.

How the values were obtained:
[1] = PK analysis after i.v. administration of N-251 in fasted mice; format: in vivo; conditions: for MRTiv / Vd1 / Vd2 / AUC / k el / clearance / Vd: fasted mice; for A (hybrid parameter) / B (hybrid parameter) / a (hybrid parameter) / b (hybrid parameter): two-compartment fit; for half-life / AUC / k el / clearance / Vd: male, ICR, mouse, plasma; for clearance: read-out: CLtotal (converted); for Vd: read-out: Vdss
Experimental: We used healthy 5-week-old ICR male mice that were subjected to overnight fasting since the night a day before the test. To analyze N-251 after i.v. administration, doses of 25, 10, and 5 mg/kg were used for each group. The blood sample was collected at 2, 5, 15, and 30 min as well as 1, 2, 4, and 6 h post-dose, and a single blood sample was collected from a single mouse. Preparation of plasma samples of N-251 was described in the “Methods” section. Data were expressed as mean (n = 6) ± standard deviation (SD). Plasma concentration-time profiles after i.v. administration were fitted to a two-compartment model using the non-linear least-squares regression program MULTI [17]. Plasma concentration (Cp) was expressed using the following equation: Cp=A⋅EXP−α⋅t+B⋅EXP−β⋅t.
where A and B are D ⋅ (α − k21)/Vd1/(α − β) and D ⋅ (k21 − β)/Vd1/(α − β), respectively. D, Vd1, and k21 are the dose, apparent distribution volume of central compartment, and distribution rate constant from the peripheral to central compartment, respectively, and α and β represent the slopes of α and β phases of log Cp, respectively. PK parameters were calculated as follows: AUC = A/α +B/β; total body clearance, CLtotal =D/AUC; elimination rate constant, kel = (Aβ + Bα)/(A + B); apparent distribution volume of peripheral compartment, Vd2 =k12/k21·Vd1; distribution volume at steady state, Vdss = Vd1 + Vd2; and mean residence time (MRT) = (k12+ k21)/(kel·k21).

[2] = PK analysis after p.o. administration of N-251 in fasted mice; format: in vivo; conditions: for AUC: 0 to infinity
Experimental: To analyze the absorption kinetics of N-251, it was orally administered to fasted mice with dose of 210, 100, 68, 50, and 30 mg/kg. Blood sample was collected at 15 and 30 min as well as 1, 1.5, 2, 3, 4, and 6 h post-dose. Data were expressed as the mean (n = 6) ± SD. AUC and MRT after p.o. administration in fasting mice were calculated based on the trapezoidal rule. F was calculated with an AUC of 10 mg/kg of i.v. dose. The highest observed concentration was used as Cmax, and the time for Cmax was defined as Tmax.

[3] = Effects of food and parasite infection on absorption of N-251 after p.o. administration; format: in vivo, mice; conditions: p.o. 68 mg/kg; for F: vs AUC of 10 mg/kg i.v.
Experimental: Normal-fasted and normal-fed mice were used for the analysis. Parasite-infected mice were prepared before the analysis, and a 0.61% infection rate in P. berghei-infected mice under fasting condition was used. The single p.o. dose of N-251 was 68 mg/kg. Blood sample was collected 15, 30, and 45 min as well as 1, 1.5, 2, 3, 4, and 6 h post-dose. Data were expressed as mean with the bar indicating the SD value.

[4] = Multiple p.o. dosing plasma concentration-time profile and simulation; format: in vivo, mice
Experimental: N-251 was administered p.o. at a dose of 68 mg/kg every 8 h for 2 days in normal-fed mice. Blood sample was collected at 15, 30, and 45 min as well as 1, 1.5, 2, 3, 4, 6, 8, 10, 16, 18, 24, 26, 32, 34, 40, 42, 44, 46, and 48 h after administration. Data were expressed as mean (n = 6) with the bar indicating the SD value. Simulation of plasma concentration-time profile after multiple dosing was performed by utilizing the parameters obtained via fitting analysis for the plasma concentration-time curve after a single p.o. dose of N-251 based on the two-compartment model with the first-order absorption process. The equation and parameters used for the simulation were as follows: Cp=X⋅EXP−ka⋅t−tlag+Y⋅EXP−α⋅t−tlag+Z⋅EXP−β⋅t−tlag,
where ka and tlag are absorption rate constant and lag time, respectively, and X, Y, Z, α, and β are the hybrid parameters. Their values used for simulation were as follows: X = 8422 ng/mL/kg, ka = 0.845 h^−1, Y = − 8419 ng/mL/kg, α = 1.09 h^−[…], Z = 5.29 ng/mL/kg, β = 1.06 h^−1, and lag time = 0.330.

[5] = Solubility; format: physicochemical; conditions: water
[6] = Multiple p.o. dosing plasma concentration-time profile and simulation; format: in vivo, mice; conditions: 68 mg/kg three times a day for 3 days
[7] = system: P. falciparum (FCR-3 strain); parameters: method as in PMID 21501696; conditions: P. falciparum FCR-3 strain in vitro, cited from earlier work
[8] = system: P. berghei; parameters: method as in PMID 11428929; conditions: 4-day suppressive test, cited from earlier work
[9] = system: rodent malaria parasites; parameters: method as in PMID 21501696; conditions: 68 mg/kg three times a day for 3 days, cited from earlier work
[10] = cited from earlier work
[11] = i.v. 5, 10 and 25 mg/kg, range over doses
[12] = male, ICR, mouse, plasma, po, p.o. 30 mg/kg
[13] = male, ICR, mouse, plasma, po, p.o. 50 mg/kg
[14] = male, ICR, mouse, plasma, po, p.o. 68 mg/kg
[15] = male, ICR, mouse, plasma, po, p.o. 100 mg/kg
[16] = male, ICR, mouse, plasma, po, p.o. 210 mg/kg
[17] = ICR, mouse, plasma, po, 68 mg/kg, normal-fed mice
[18] = fit of single p.o. dose, two-compartment model with first-order absorption

In the case of `OCCCCCCC1COOC2(CCCCCCCCCCC2)OOC1` [N-251, 6-(1,2,6,7-tetraoxaspiro [7.11]nonadec-4-yl)hexan-1-ol], the MRTiv ([1]; i.v. 5 mg/kg) is reported as 1.12 h, the Vd1 ([1]; i.v. 5 mg/kg) is reported as 3.23 L/kg and the Vd2 ([1]; i.v. 5 mg/kg) is reported as 1.62 L/kg. For the same molecule, the “A (hybrid parameter)” value ([1]; i.v. 5 mg/kg) was 1453.6 ± 465.9 ng/mL, the “B (hybrid parameter)” value ([1]; i.v. 5 mg/kg) was 92.5 ± 182.0 ng/mL and the “a (hybrid parameter)” value ([1]; i.v. 5 mg/kg) was 1.62 ± 0.70 h⁻¹. The “b (hybrid parameter)” value ([1]; i.v. 5 mg/kg) was 0.35 ± 0.37 h⁻¹, the MRTiv ([1]; i.v. 10 mg/kg) was 0.96 h and the Vd1 ([1]; i.v. 10 mg/kg) was 1.58 L/kg. For the same molecule, the Vd2 ([1]; i.v. 10 mg/kg) was 2.35 L/kg, the “A (hybrid parameter)” value ([1]; i.v. 10 mg/kg) was 5922.7 ± 1731.5 ng/mL and the “B (hybrid parameter)” value ([1]; i.v. 10 mg/kg) was 410.0 ± 253.8 ng/mL. For the same molecule, the “a (hybrid parameter)” value ([1]; i.v. 10 mg/kg) was 3.84 ± 1.23 h⁻¹, the “b (hybrid parameter)” value ([1]; i.v. 10 mg/kg) was 0.46 ± 0.15 h⁻¹ and the MRTiv ([1]; i.v. 25 mg/kg) was 0.86 h. The Vd1 ([1]; i.v. 25 mg/kg) was 1.36 L/kg, the Vd2 ([1]; i.v. 25 mg/kg) was 1.52 L/kg and the “A (hybrid parameter)” value ([1]; i.v. 25 mg/kg) was 17,738.1 ± 1700.0 ng/mL. For the same molecule, the “B (hybrid parameter)” value ([1]; i.v. 25 mg/kg) was 690.4 ± 341.6 ng/mL, the “a (hybrid parameter)” value ([1]; i.v. 25 mg/kg) was 3.12 ± 0.55 h⁻¹ and the “b (hybrid parameter)” value ([1]; i.v. 25 mg/kg) was 0.39 ± 0.10 h⁻¹. For the same molecule, the T1/2α [1, 11] was 0.18 to 0.429 h, the distribution volume [1, 11] was 2.88 to 4.85 L/kg and the half-life ([1]; other: i.v. and p.o. administration, i.v. and p.o. administration, read-out: half-life) was less than 2 h. For the same molecule, the AUC ([1]; iv, i.v. 5 mg/kg) was 1160 ng·h/mL, the k el ([1]; iv, i.v. 5 mg/kg) was 0.000369 s⁻¹ and the clearance ([1]; iv, i.v. 5 mg/kg) was 71.7 mL/min/kg. For the same molecule, the Vd ([1]; iv, i.v. 5 mg/kg) was 4.85 L/kg, the AUC ([1]; iv, i.v. 10 mg/kg) was 2430 ng·h/mL and the k el ([1]; iv, i.v. 10 mg/kg) was 0.000722 s⁻¹. For the same molecule, the clearance ([1]; iv, i.v. 10 mg/kg) was 68.5 mL/min/kg, the Vd ([1]; iv, i.v. 10 mg/kg) was 3.93 L/kg and the AUC ([1]; iv, i.v. 25 mg/kg) was 7460 ng·h/mL. For the same molecule, the k el ([1]; iv, i.v. 25 mg/kg) was 0.000686 s⁻¹, the clearance ([1]; iv, i.v. 25 mg/kg) was 55.8 mL/min/kg and the Vd ([1]; iv, i.v. 25 mg/kg) was 2.88 L/kg. It also gave a half-life ([1]; iv, i.v. 5, 10 and 25 mg/kg, range over doses, read-out: T1/2β) of 1.5 to 1.99 h, a Tmax ([2]; ICR, mouse, plasma, po, every group of dose (30-210 mg/kg)) of 2 h and a bioavailability ([2]; ICR, mouse, plasma, po, p.o. administration, over doses 30-210 mg/kg, read-out: bioavailability (F)) of roughly 23%. For the same molecule, the Cmax [2, 12] was 634 ± 129 ng/mL, the Tmax [2, 12] was 2 h and the AUC [2, 12] was 1570 ng·h/mL. It also gave a Cmax [2, 13] of 1360 ± 799 ng/mL, a Tmax [2, 13] of 2 h and an AUC [2, 13] of 2570 ng·h/mL. The Cmax [2, 14] was 1680 ± 811 ng/mL, the Tmax [2, 14] was 2 h and the AUC [2, 14] was 3770 ng·h/mL. For the same molecule, the Cmax [2, 15] was 2460 ± 802 ng/mL, the Tmax [2, 15] was 2 h and the AUC [2, 15] was 5890 ng·h/mL. It also gave a Cmax [2, 16] of 4890 ± 1190 ng/mL, a Tmax [2, 16] of 2 h and an AUC [2, 16] of 15200 ng·h/mL. For the same molecule, the MRTpo ([2]; p.o. 30 mg/kg) was 2.45 h, the F ([2]; p.o. 30 mg/kg, vs AUC of 10 mg/kg i.v.) was 0.2156 and the MRTpo ([2]; p.o. 50 mg/kg) was 2.49 h. The F ([2]; p.o. 50 mg/kg, vs AUC of 10 mg/kg i.v.) was 0.2110, the MRTpo ([2]; p.o. 68 mg/kg) was 2.46 h and the F ([2]; p.o. 68 mg/kg, vs AUC of 10 mg/kg i.v.) was 0.2277. For the same molecule, the MRTpo ([2]; p.o. 100 mg/kg) was 2.46 h, the F ([2]; p.o. 100 mg/kg, vs AUC of 10 mg/kg i.v.) was 0.2419 and the MRTpo ([2]; p.o. 210 mg/kg) was 2.74 h. The F ([2]; p.o. 210 mg/kg, vs AUC of 10 mg/kg i.v.) was 0.2982, the F ([2]; p.o. between 30 and 100 mg/kg) was “approximately 0.22” and the AUC ([3]; ICR, mouse, plasma, po, 68 mg/kg, P. berghei-infected (0.61%) fasted mice) was 3270 ng·h/mL. The Cmax ([3]; ICR, mouse, plasma, po, 68 mg/kg, P. berghei-infected (0.61%) fasted mice, read-out: Cmax) was 1770 ± 1650 ng/mL, the Cmax ([3]; ICR, mouse, plasma, po, 68 mg/kg, normal-fasted mice (control), read-out: Cmax) was 1680 ng/mL and the AUC [3, 17] was 2280 ng·h/mL. The Tmax [3, 17] was 1.5 h, the Cmax ([3]; ICR, mouse, plasma, po, 68 mg/kg, normal-fed mice, read-out: Cmax) was 953 ng/mL and the “AUC in fed mice relative to fasted mice” value [3] was “about 60%”. For the same molecule, the “Cmax in fed mice relative to normal-fasted mice” value [3] was 57%, the F ([3]; P. berghei-infected (0.61%) fasted mice) was 0.1978 and the MRTpo ([3]; normal-fed mice) was 3.01 h. The F ([3]; normal-fed mice) was 0.1379, the Cmax ([3]; normal-fed mice, 68 mg/kg) was 950 ng/mL and 952.50 ± 332.49 ng/mL and the “minimal plasma concentration (Cmin)” value ([4]; 68 mg/kg p.o. every 8 h for 2 days, normal-fed mice, except 8 h after the first administration) was “greater than 10 ng/mL”. For the same molecule, the “accumulation on multiple oral dosing” value ([4]; 68 mg/kg p.o. three times per day for 2 days, normal-fed mice) was “did not accumulate; also recorded: does not accumulate”, the “X (hybrid parameter used for simulation)” value [4, 18] was 8422 ng/mL/kg and the “Z (hybrid parameter used for simulation)” value [4, 18] was 5.29 ng/mL/kg. For the same molecule, the “ka (absorption rate constant)” value [4, 18] was 0.845 h⁻¹, the lag time [4, 18] was 0.330 and the “α (hybrid parameter used for simulation)” value [4, 18] was 1.09 ng/h/mL/kg. For the same molecule, the “β (hybrid parameter used for simulation)” value [4, 18] was 1.06 h⁻¹, the solubility [5] was 0.007 mg/mL (≈ 0.0188 mM) and the “plasma concentration maintained for 72 h” value [6] was “more than 10 ng/mL”. For the same molecule, the EC50 ([7]; equivalent of 8.6 ng/mL, read-out: EC50) was 23 nM, the EC50 [7] was 8.6 ng/mL and the ED50 ([8]; i.v.) was 22 mg/kg. The ED50 ([8]; p.o.) was 15 mg/kg, the “period without parasites after the last administration” value ([9]; infected mice) was 2 months and the “time after treatment at which parasites were not observed in the bloodstream” value ([9]; infected mice) was 36 h. For the same molecule, the “time after which malaria parasites decreased” value ([9]; infected mice) was 16 h, the “cure of infected mice” value [9] was “completely cured without recrudescence” and the “solubility in Cremophor EL” value ([10]; Cremophor EL) was 65 mg/mL (≈ 174 mM). For the same molecule, the “solubility in olive oil” value ([10]; olive oil) was 92 mg/mL (≈ 247 mM).
